One may read the MIC as the least concentration at which growth counts as inhibited. A high value points to a need for much substance.

Molecules are shown by their SMILES. Values after ≈ are worked out from the molar mass of the structure shown. *1 amine or outer side, *2 acyl side, *3 side chain or, on linkers, in order; H or OH if unused. Where a SMILES comes first, the peptide text is derived from it. [ ]: non-standard residue; d: D form. The star is where a group is joined. X13 = C[C@H](CO[C@H](CC1CC2(CCC2)C1)[C@@H](C)C(=O)[*:2])N[*:1]; X2 = CCCCCC[C@@H](OC[C@@H](C)N[*:1])[C@@H](C)C(=O)[*:2]; X9 = CCCCCC(C)[C@@H](OC[C@@H](C)N[*:1])C(C)C(=O)[*:2]; Cyclobutyl(trans-3-NH2) = N[C@H]1C[C@H](*)C1; Gly(cHept) = N[C@H](C(=O)O)C1CCCCCC1; aThr = C[C@H](O)[C@H](N)C(=O)O; NMeL = CN[C@@H](CC(C)C)C(=O)O; Chg = N[C@H](C(=O)O)C1CCCCC1; NMeNva = CCC[C@H](NC)C(=O)O; X8 = NC[C@H]1C[C@H](*)C1; Dap = NC[C@H](N)C(=O)O; Propyl(3-NH2) = NCCC*; X24 = NC[C@H](F)C*; X3 = NC[C@@H](F)C*; X22 = C1CC(*)CCN1; X20 = C1NCC1C*; X10 = NCCCC*

The results in this text go back to patent US11279735B2, “Cyclic peptide antibiotics” (priority 2017, dated 2022).

The test system of one test is Escherichia coli (E. coli) strain CFT073 ATCC 700928. It is filed as cell-based. The note with it: ATCC 700928, 22 h. The method in brief:
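Broth microdilution MIC per CLSI M07-A8 in cation-adjusted Mueller Hinton II broth with 0.002% Tween-80. Ten-point 2-fold series topped at 64, 4, 0.5 or 0.13 μg/mL depending on protocol. Final inoculum OD600 0.0005, incubated 22 h at 35 °C.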
Molecule `CCCCCC[C@H]1OC[C@@H](C)NC(=O)[C@H](CN)NC(=O)[C@H](CN)NC(=O)[C@H](C2CCCCCC2)NC(=O)[C@H](CC(C)C)N(C)C(=O)[C@@H]1C` [Example 151, (3R,6S,9S,12S,15S,18R,19R)-6,9-Bis(aminomethyl)-12-cycloheptyl-19-hexyl-15-isobutyl-3,16,18-trimethyl-1-oxa-4,7,10,13,16-pentazacyclononadecane-5,8,11,14,17-pentone] (cyclo([Dap][Dap][X2][NMeL][Gly(cHept)])) displayed a minimum inhibitory concentration (MIC) of 6.3 µM (≈ 4.28 µg/mL). The molecule `CCCCCC[C@H]1OC[C@@H](C)NC(=O)[C@H](COCCCCN)NC(=O)[C@H](CN)NC(=O)[C@H](C2CCCCCC2)NC(=O)[C@H](CCC)N(C)C(=O)[C@@H]1C` [Example 152, (3R,6S,9S,12S,15S,18R,19R)-6-((4-Aminobutoxy)methyl)-9-(aminomethyl)-12-cycloheptyl-19-hexyl-3,16,18-trimethyl-15-propyl-1-oxa-4,7,10,13,16-pentaazacyclononadecane-5,8,11,14,17-pentaone] (cyclo([Dap]S(X10)[X2][NMeNva][Gly(cHept)])) registered a minimum inhibitory concentration (MIC) of 6.3 µM (≈ 4.65 µg/mL).

The molecule `CCCCCC(C)[C@H]1OC[C@@H](C)NC(=O)[C@H]([C@H](C)O)NC(=O)[C@H](CN)NC(=O)[C@H](C2CCCCC2)NC(=O)[C@H](CC(C)C)N(C)C(=O)C1C` (stereo partly drawn) [Example 153, (3R,6S,9S,12S,15S,18R,19R)-9-(Aminomethyl)-12-cyclohexyl-19-(heptan-2-yl)-6-((S)-1-hydroxyethyl)-15-isobutyl-3,16,18-trimethyl-1-oxa-4,7,10,13,16-pentaazacyclononadecane-5,8,11,14,17-pentaone] (cyclo([Chg][Dap][aThr][X9][NMeL])) yielded an MIC of 1.6 µM (≈ 1.11 µg/mL). For the molecule `CCC[C@H]1C(=O)N[C@@H](C2CCCCC2)C(=O)N[C@@H](CN)C(=O)N[C@@H]([C@H](C)O)C(=O)N[C@H](C)CO[C@H](CC2CC3(CCC3)C2)[C@@H](C)C(=O)N1C` [Example 156, (3R,6S,9S,12S,15S,18R,19R)-9-(Aminomethyl)-12-cyclohexyl-6-((S)-1-hydroxyethyl)-3,16,18-trimethyl-15-propyl-19-(spiro[3.3]heptan-2-ylmethyl)-1-oxa-4,7,10,13,16-pcntaazacyclononadecane-5,8,11,14,17-pentaone] (cyclo([Chg][Dap][aThr][X13][NMeNva])), the MIC amounted to 2.2 µM (≈ 1.52 µg/mL). In turn, `CCC[C@H]1C(=O)N[C@@H](C2CCCCC2)C(=O)N[C@@H](CN)C(=O)N[C@@H](COCCCN)C(=O)N[C@H](C)CO[C@H](CC2CC3(CCC3)C2)[C@@H](C)C(=O)N1C` [Example 157, (3R,6S,9S,12S,15S,18R,19R)-9-(Aminomethyl)-6-((3-aminopropoxy)methyl)-12-cyclohexyl-3,16,18-trimethyl-15-propyl-19-(spiro[3.3]heptan-2-ylmethyl)-1-oxa-4,7,10,13,16-pentaazacyclononadecane-5,8,11,14,17-pentaone] (cyclo([Chg][Dap]S(Propyl(3-NH2))[X13][NMeNva])) showed a minimum inhibitory concentration (MIC) of 12 µM (≈ 8.81 µg/mL). Compared with the last molecule, the MIC is about 5.5-fold higher. On to `CCC[C@H]1C(=O)N[C@@H](C2CCCCCC2)C(=O)N[C@@H](CN)C(=O)N[C@@H](COCCCN)C(=O)N[C@H](C)CO[C@H](CC2CC3(CCC3)C2)[C@@H](C)C(=O)N1C` [Example 159, (3R,6S,9S,12S,15S,18R,19R)-9-(Aminomethyl)-6-((3-aminopropoxy)methyl)-12-cycloheptyl-3,16,18-trimethyl-15-propyl-19-(spiro[3.3]heptan-2-ylmethyl)-1-oxa-4,7,10,13,16-pentaazacyclononadecane-5,8,11,14,17-pentaone] (cyclo([Dap]S(Propyl(3-NH2))[X13][NMeNva][Gly(cHept)])), for which the MIC turned out to be 3.1 µM (≈ 2.32 µg/mL). Against the preceding molecule, the MIC is about 3.9-fold lower.

`CCCCCC[C@H]1OC[C@@H](C)NC(=O)[C@H](CNCCN)NC(=O)[C@H](CN)NC(=O)[C@H](C2CCCCCC2)NC(=O)[C@H](CC(C)C)N(C)C(=O)[C@@H]1C` [Example 161, (3R,6S,9S,12S,15S,18R,19R)-6-[(2-Aminoethylamino)methyl]-9-(aminomethyl)-12-cycloheptyl-19-hexyl-15-isobutyl-3,16,18-trimethyl-1-oxa-4,7,10,13,16-pentazacyclononadecane-5,8,11,14,17-pentone] displayed an MIC of 6.3 µM (≈ 4.56 µg/mL).

The molecule `CCCCCC[C@H]1OC(=O)CNC(=O)[C@H](C2CCC2)NC(=O)[C@H](CN)NC(=O)[C@H](C2CCCCC2)NC(=O)[C@H](CC(C)C)N(C)C(=O)[C@@H]1C` [Example 162, (6S,9S,12S,15S,18R,19R)-9-(Aminomethyl)-6-cyclobutyl-12-cyclohexyl-19-hexyl-15-isobutyl-16,18-dimethyl-1-oxa-4,7,10,13,16-pentaazacyclononadecane-2,5,8,11,14,17-hexaone] displayed a minimum inhibitory concentration (MIC) of 3.1 µM (≈ 2.14 µg/mL). Compared with the last molecule, the MIC is about 2-fold lower. On the same count and under the same terms, the result for `CCC[C@H]1C(=O)N[C@@H](C2CCCCCC2)C(=O)N[C@@H](CN)C(=O)N[C@@H](COC2CCNCC2)C(=O)N[C@H](C)CO[C@H](CC2CC3(CCC3)C2)[C@@H](C)C(=O)N1C` [Example 163, (3R,6S,9S,12S,15S,18R,19R)-9-(Aminomethyl)-12-cycloheptyl-3,16,18-trimethyl-6-((piperidin-4-yloxy)methyl)-15-propyl-19-(spiro[3.3]heptan-2-ylmethyl)-1-oxa-4,7,10,13,16-pentaazacyclononadecane-5,8,11,14,17-pentaone] (cyclo([Dap]S(X22)[X13][NMeNva][Gly(cHept)])) reads 4.4 µM (≈ 3.41 µg/mL). `CCC[C@H]1C(=O)N[C@@H](C2CCCCCC2)C(=O)N[C@@H](CN)C(=O)N[C@@H](CO[C@H]2C[C@H](N)C2)C(=O)N[C@H](C)CO[C@H](CC2CC3(CCC3)C2)[C@@H](C)C(=O)N1C` [Example 164, (3R,6S,9S,12S,15S,18R,19R)-6-(((1r,3S)-3-Aminocyclobutoxy)methyl)-9-(aminomethyl)-12-cycloheptyl-3,16,18-trimethyl-15-propyl-19-(spiro[3.3]heptan-2-ylmethyl)-1-oxa-4,7,10,13,16-pentaazacyclononadecane-5,8,11,14,17-pentaone] (cyclo([Dap]S(Cyclobutyl(trans-3-NH2))[X13][NMeNva][Gly(cHept)])) showed a minimum inhibitory concentration (MIC) of 2.2 µM (≈ 1.67 µg/mL). As for `CCCCCC[C@H]1OC[C@@H](C)NC(=O)[C@H](COc2cccc(CN)c2)NC(=O)[C@H](CN)NC(=O)[C@H](C2CCCCC2)NC(=O)[C@H](CC(C)C)N(C)C(=O)[C@@H]1C` [Example 167, (3R,6S,9S,12S,15S,18R,19R)-9-(Aminomethyl)-6-((3-(aminomethyl)phenoxy)methyl)-12-cyclohexyl-19-hexyl-15-isobutyl-3,16,18-trimethyl-1-oxa-4,7,10,13,16-pentaazacyclononadecane-5,8,11,14,17-pentaone], the MIC is 1.6 µM (≈ 1.24 µg/mL). For the molecule `CCCCCC[C@H]1OC[C@@H](C)NC(=O)[C@H](CO[C@H]2C[C@H](CN)C2)NC(=O)[C@H](CN)NC(=O)[C@H](C2CCCCCC2)NC(=O)[C@H](CCC)N(C)C(=O)[C@@H]1C` [Example 168, (3R,6S,9S,12S,15S,18R,19R)-9-(Aminomethyl)-6-(((1r,3S)-3-(aminomethyl)cyclobutoxy)methyl)-12-cycloheptyl-19-hexyl-3,16,18-trimethyl-15-propyl-1-oxa-4,7,10,13,16-pentaazacyclononadecane-5,8,11,14,17-pentaone] (cyclo([Dap]S(X8)[X2][NMeNva][Gly(cHept)])), the MIC stood at 3.1 µM (≈ 2.33 µg/mL). Against the preceding molecule, the MIC is about 1.9-fold higher. On to `CCCCCC[C@H]1OC[C@@H](C)NC(=O)[C@H](CNCCO)NC(=O)[C@H](CN)NC(=O)[C@H](C2CCCCCC2)NC(=O)[C@H](CC(C)C)N(C)C(=O)[C@@H]1C` [Example 169, (3R,6S,9S,12S,15S,18R,19R)-9-(Aminomethyl)-12-cycloheptyl-19-hexyl-6-(((2-hydroxyethyl)amino)methyl)-15-isobutyl-3,16,18-trimethyl-1-oxa-4,7,10,13,16-pentaazacyclononadecane-5,8,11,14,17-pentaone], for which the MIC came to 6.3 µM (≈ 4.56 µg/mL). As to `CCC[C@H]1C(=O)N[C@@H](C2CCCCCC2)C(=O)N[C@@H](CN)C(=O)N[C@@H](COCC2CNC2)C(=O)N[C@H](C)CO[C@H](CC2CC3(CCC3)C2)[C@@H](C)C(=O)N1C` [Example 171, (3R,6S,9S,12S,15S,18R,19R)-9-(Aminomethyl)-6-((azetidin-3-ylmethoxy)methyl)-12-cycloheptyl-3,16,18-trimethyl-15-propyl-19-(spiro[3.3]heptan-2-ylmethyl)-1-oxa-4,7,10,13,16-pentaazacyclononadecane-5,8,11,14,17-pentaone] (cyclo([Dap]S(X20)[X13][NMeNva][Gly(cHept)])), the minimum inhibitory concentration (MIC) stood at 6.3 µM (≈ 4.79 µg/mL).

Still in this test, the particulars now being: E. coli CFT073 ATCC 700928; Mueller Hinton II cation adjusted Broth with 0.002% v/v Tween-80; 35° C. for 22 hours; lowest concentration that completely prevented bacterial growth.
For the molecule `CCCCCC[C@H]1OC[C@@H](C)NC(=O)[C@H](COC[C@H](F)CN)NC(=O)[C@H](CN)NC(=O)[C@H](C2CCCCC2)NC(=O)[C@H](CC(C)C)N(C)C(=O)[C@@H]1C` [Example 154, (3R,6S,9S,12S,15S,18R,19R)-6-(((R)-3-Amino-2-fluoropropoxy)methyl)-9-(aminomethyl)-12-cyclohexyl-19-hexyl-15-isobutyl-3,16,18-trimethyl-1-oxa-4,7,10,13,16-pentaazacyclononadecane-5,8,11,14,17-pentaone] (cyclo([Chg][Dap]S(X3)[X2][NMeL])), the minimum inhibitory concentration (MIC) amounted to 12 µM (≈ 8.9 µg/mL). Regarding `CCCCCC[C@H]1OC[C@@H](C)NC(=O)[C@H](COC[C@@H](F)CN)NC(=O)[C@H](CN)NC(=O)[C@H](C2CCCCC2)NC(=O)[C@H](CC(C)C)N(C)C(=O)[C@@H]1C` [Example 158, (3R,6S,9S,12S,15S,18R,19R)-6-(((S)-3-Amino-2-fluoropropoxy)methyl)-9-(aminomethyl)-12-cyclohexyl-19-hexyl-15-isobutyl-3,16,18-trimethyl-1-oxa-4,7,10,13,16-pentaazacyclononadecane-5,8,11,14,17-pentaone] (cyclo([Chg][Dap]S(X24)[X2][NMeL])), the minimum inhibitory concentration (MIC) is 12 µM (≈ 8.9 µg/mL).
